# Molecular target: GST tagged wild type TGFβR1 (Homo sapiens (Human), UniProt P36897)
# Assay: HTRF probe-displacement assay, GST tagged wild type TGFβR1
# Assay type: binding
# Details: GST tagged wild type proteins were used instead of HIS-tagged proteins
# Description: Compounds were dissolved at 10 mM in dimethylsulfoxide (DMSO) and evaluated at eleven concentrations. IC50 values were derived by non-linear regression analysis.
# Chain of GST tagged wild type TGFβR1 (P36897 34-503): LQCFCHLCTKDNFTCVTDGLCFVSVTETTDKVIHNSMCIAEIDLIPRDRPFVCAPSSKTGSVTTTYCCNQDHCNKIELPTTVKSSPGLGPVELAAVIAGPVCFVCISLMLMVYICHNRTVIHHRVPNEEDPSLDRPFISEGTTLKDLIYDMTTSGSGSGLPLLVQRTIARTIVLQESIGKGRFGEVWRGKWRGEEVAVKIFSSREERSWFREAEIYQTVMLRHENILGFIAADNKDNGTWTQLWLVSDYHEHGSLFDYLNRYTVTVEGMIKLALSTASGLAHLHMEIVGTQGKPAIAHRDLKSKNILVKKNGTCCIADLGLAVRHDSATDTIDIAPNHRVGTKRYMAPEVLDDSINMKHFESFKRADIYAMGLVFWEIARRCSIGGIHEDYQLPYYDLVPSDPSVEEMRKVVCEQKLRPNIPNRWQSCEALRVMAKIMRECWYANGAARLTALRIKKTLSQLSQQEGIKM
row,IC50 [µM],Structure (SMILES)
1,0.0061,"Cc1nc(-c2nc(Nc3ccncc3F)c3cccn3n2)ccc1F [Example 74, 3-fluoro-N-[2-(5-fluoro-6-methylpyridin-2-yl)pyrrolo[2,1-f][1,2,4]triazin-4-yl]pyridin-4-amine]"
2,0.006,"CN1CCN(Cc2ccn3nc(-c4cccc(C(F)F)n4)nc(Nc4ccncc4F)c23)CC1 [Example 122, N-{2-[6-(difluoromethyl)pyridin-2-yl]-5-[(4-methylpiperazin-1-yl)methyl]pyrrolo[2,1-f][1,2,4]triazin-4-yl}-3-fluoropyridin-4-amine]"
3,2.6,"O=C(NCCN1CCS(=O)(=O)CC1)c1cnccc1Nc1nc(-c2ccccn2)nn2cccc12 [Example 147, N-[2-(1,1-dioxo-1,4-thiomorpholin-4-yl)ethyl]-4-{[2-(pyridin-2-yl)pyrrolo[2,1-f][1,2,4]triazin-4-yl]amino}pyridine-3-carboxamide]"
4,1.7,"Cc1ccnc(-c2nc(Nc3ccncc3F)c3cccn3n2)c1 [Example 62, 3-fluoro-N-[2-(4-methylpyridin-2-yl)pyrrolo[2,1-f][1,2,4]triazin-4-yl]pyridin-4-amine]"

# Molecular target: HIS-TGFβR1 T204D (Homo sapiens (Human), UniProt P36897, T204D)
# Assay: HTRF probe-displacement assay, HIS-TGFβR1 T204D
# Assay type: binding
# Details: 1 hour at room temperature
# Chain of HIS-TGFβR1 T204D (P36897 34-503 T204D): as the sequence (P36897 34-503) above, with T171D counted along it
row,Structure (SMILES),IC50 [µM]
1,"COc1cccc(-c2nc(Nc3ccnc(C)c3)c3cccn3n2)n1 [Example 92, N-[2-(6-methoxypyridin-2-yl)pyrrolo[2,1-f][1,2,4]triazin-4-yl]-2-methylpyridin-4-amine]",1.5
2,"OC1(c2ccccc2)CCN(Cc2ccn3nc(-c4ccccn4)nc(Nc4ccncc4F)c23)CC1 [Example 277, 1-({4-[(3-fluoropyridin-4-yl)amino]-2-(pyridin-2-yl)pyrrolo[2,1-f][1,2,4]triazin-5-yl}methyl)-4-phenylpiperidin-4-ol]",0.0015

# The remaining lines, values ahead:
row,IC50 [µM],Structure (SMILES)
1,0.0033,"C[C@@H](NCc1ccn2nc(-c3ccccn3)nc(Nc3ccncc3F)c12)C(C)(C)C [Example 300, N-[5-({[(2R)-3,3-dimethylbutan-2-yl]amino}methyl)-2-(pyridin-2-yl)pyrrolo[2,1-f][1,2,4]triazin-4-yl]-3-fluoropyridin-4-amine]"
2,0.032,"O=C(NCc1ccccn1)c1cnccc1Nc1nc(-c2cccc(C(F)F)n2)nn2cccc12 [Example 181, 4-({2-[6-(difluoromethyl)pyridin-2-yl]pyrrolo[2,1-f][1,2,4]triazin-4-yl}amino)-N-(pyridin-2-ylmethyl)pyridine-3-carboxamide]"
